In ChEMBL document CHEMBL1201862, “PubChem BioAssay data set” (2004):
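How tested: cells in 96-well plates exposed to compound for 48 hours at five concentrations. GI50 marks 50% less growth.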 Calls of active or inactive are those of the source. Cut-off read from the data, not from the text of the source: active = GI50 up to about 1.1 µM and inactive = higher.

How the values were obtained:
Test in all cases: inhibition of tumour cell growth, NCI panel, 48 h
SK-MEL-28 = system: SK-MEL-28
HCT-15 = system: HCT-15
SF-539 = system: SF-539
SNB-75 = system: SNB-75
U-251 = system: U-251
K562 = system: K562
NCI-H522 = system: NCI-H522
SK-OV-3 = system: SK-OV-3
NCI-H23 = system: NCI-H23
MOLT-4 = system: MOLT-4
HT-29 = system: HT-29
SR = system: SR
UO-31 = system: UO-31
CCRF-CEM = system: CCRF-CEM
OVCAR-4 = system: OVCAR-4
SF-295 = system: SF-295
CAKI-1 = system: CAKI-1
SW-620 = system: SW-620
NCI-H226 = system: NCI-H226
HCC 2998 = system: HCC 2998

Compound	GI50 (SK-MEL-28)	GI50 (HCT-15) [µM]	GI50 (SF-539)	GI50 (SNB-75)	GI50 (U-251)	GI50 (K562)	GI50 (NCI-H522)	GI50 (SK-OV-3)	GI50 (NCI-H23)	GI50 (MOLT-4)	GI50 (HT-29)	GI50 (SR)	GI50 (UO-31)	GI50 (CCRF-CEM)	GI50 (OVCAR-4)	GI50 (SF-295)	GI50 (CAKI-1)	GI50 (SW-620)	GI50 (NCI-H226)	GI50 (HCC 2998)
COc1ccc(Oc2nc(C#CC(C)(C)O)nc(Oc3ccc(OC)cc3)n2)cc1	4.9 µM (inactive)	1.34	7.08 µM (inactive)	15.1 µM (inactive)	3.82 µM (inactive)	1.67 µM (inactive)	3.2 µM (inactive)	19.2 µM (inactive)	7.74 µM (inactive)	1.53 µM (inactive)	3.3 µM (inactive)	0.625 µM (active)	1.55 µM (inactive)	1.43 µM (inactive)	1.79 µM (inactive)	16.7 µM (inactive)	3.67 µM (inactive)	1.84 µM (inactive)		
CCCNC1=Nc2ccccc2N(Cc2ccccc2)CC1	13.3 µM (inactive)	20.7		5.62 µM (inactive)	18 µM (inactive)	5.57 µM (inactive)	13.9 µM (inactive)	28.2 µM (inactive)	16.5 µM (inactive)	10.9 µM (inactive)	19.5 µM (inactive)		30.3 µM (inactive)	21 µM (inactive)	35 µM (inactive)	24.9 µM (inactive)	21.3 µM (inactive)	23.7 µM (inactive)	26.6 µM (inactive)	
S=c1[nH]nc(COc2ccc3c(c2)CCCC3)n1/N=C/c1ccc(Cl)cc1	18.2 µM (inactive)	20.4	17.6 µM (inactive)		19.1 µM (inactive)	17.3 µM (inactive)	14.1 µM (inactive)	18.1 µM (inactive)	19.5 µM (inactive)	19.4 µM (inactive)			17.1 µM (inactive)	32.1 µM (inactive)	18.1 µM (inactive)	17.8 µM (inactive)	18.6 µM (inactive)	17.4 µM (inactive)		
CCN(CC)CCSc1nc2cccc([N+](=O)[O-])c2[nH]1	> 100 µM (inactive)	> 100	> 100 µM (inactive)	> 100 µM (inactive)		> 100 µM (inactive)	> 100 µM (inactive)	> 100 µM (inactive)	> 100 µM (inactive)	> 100 µM (inactive)	> 100 µM (inactive)			> 100 µM (inactive)	> 100 µM (inactive)		> 100 µM (inactive)	> 100 µM (inactive)	> 100 µM (inactive)	> 100 µM (inactive)
Cc1cc(C)c(/C=C(\C(=C/c2c(C)cc(C)cc2C)[N+](=O)[O-])[N+](=O)[O-])c(C)c1	> 100 µM (inactive)		> 100 µM (inactive)	> 100 µM (inactive)	> 100 µM (inactive)	> 100 µM (inactive)		> 100 µM (inactive)	> 100 µM (inactive)	32.7 µM (inactive)	> 100 µM (inactive)	30.4 µM (inactive)	> 100 µM (inactive)	41.6 µM (inactive)	> 100 µM (inactive)	> 100 µM (inactive)	> 100 µM (inactive)	> 100 µM (inactive)		> 100 µM (inactive)
Cc1c2ccccc2nc2[nH]c3ccncc3c12	70.6 µM (inactive)	26.5	36.8 µM (inactive)	86.3 µM (inactive)	30.1 µM (inactive)	51.5 µM (inactive)	36.1 µM (inactive)	50 µM (inactive)	33 µM (inactive)	> 100 µM (inactive)	28.2 µM (inactive)	26.9 µM (inactive)	25.9 µM (inactive)	0.957 µM (active)	45.6 µM (inactive)	31.6 µM (inactive)	25.2 µM (inactive)	23.9 µM (inactive)		
Cc1cc(C)nc(NS(=O)(=O)c2ccc(Nc3c4ccccc4nc4c(C(=O)N5CCN(CCOS(C)(=O)=O)CC5)ccc(Cl)c34)cc2)n1	> 100 µM (inactive)	> 100	> 100 µM (inactive)	> 100 µM (inactive)	> 100 µM (inactive)	> 100 µM (inactive)		> 100 µM (inactive)	> 100 µM (inactive)	> 100 µM (inactive)	> 100 µM (inactive)	> 100 µM (inactive)	> 100 µM (inactive)	> 100 µM (inactive)	> 100 µM (inactive)	> 100 µM (inactive)	> 100 µM (inactive)		> 100 µM (inactive)	> 100 µM (inactive)
CCCc1onc(CCC(=O)N(Cc2ccccc2)Cc2ccccc2)c1CC		> 100			> 100 µM (inactive)	> 100 µM (inactive)	> 100 µM (inactive)	> 100 µM (inactive)	> 100 µM (inactive)	> 100 µM (inactive)	> 100 µM (inactive)			> 100 µM (inactive)	> 100 µM (inactive)	> 100 µM (inactive)	> 100 µM (inactive)			> 100 µM (inactive)
CCCCCCCCCCCC1CCCC(C)N1 (stereo not drawn)	76.6 µM (inactive)	38.5	69.8 µM (inactive)	65.8 µM (inactive)	59.3 µM (inactive)	19.1 µM (inactive)	35.9 µM (inactive)	75.2 µM (inactive)	61.9 µM (inactive)	15.9 µM (inactive)	20.6 µM (inactive)		41 µM (inactive)	23.3 µM (inactive)	61.2 µM (inactive)	77.8 µM (inactive)	43.2 µM (inactive)	58.3 µM (inactive)	76.9 µM (inactive)	46.3 µM (inactive)
CCOC(=O)/C=C(\N=P(c1ccccc1)(c1ccccc1)c1ccccc1)C(F)(F)C(F)(F)C(F)(F)C(F)(F)C(F)(F)F	> 100 µM (inactive)	> 100	> 100 µM (inactive)	> 100 µM (inactive)	> 100 µM (inactive)	> 100 µM (inactive)		> 100 µM (inactive)	> 100 µM (inactive)	> 100 µM (inactive)	> 100 µM (inactive)	> 100 µM (inactive)	> 100 µM (inactive)	> 100 µM (inactive)	> 100 µM (inactive)	> 100 µM (inactive)	> 100 µM (inactive)	> 100 µM (inactive)		> 100 µM (inactive)
CC1=C(C(=O)OCCO[N+](=O)[O-])C(c2ccccc2C(F)(F)F)C(C(=O)OC(C)C)=C(C)N1 (stereo not drawn)	16.6 µM (inactive)	12.2	17.3 µM (inactive)		14.6 µM (inactive)	3.94 µM (inactive)	16.9 µM (inactive)	39.6 µM (inactive)	19.6 µM (inactive)	4.7 µM (inactive)	14.2 µM (inactive)	41.7 µM (inactive)	11.3 µM (inactive)	27.3 µM (inactive)	12.7 µM (inactive)	11.8 µM (inactive)	11.4 µM (inactive)	30.1 µM (inactive)	9.73 µM (inactive)	22.4 µM (inactive)
CCOC(=O)CCC(NC(=O)OCc1ccccc1)C(=O)NC(CCC(=O)OCC)C(=O)NC(CCC(=O)OCC)C(=O)NC(CCC(=O)OCC)C(=O)NC(CCC(=O)OCC)C(=O)NC(CCC(=O)OCC)C(=O)NC(CCC(=O)OCC)C(=O)OCC (stereo not drawn)	> 100 µM (inactive)	> 100		40.5 µM (inactive)	> 100 µM (inactive)	> 100 µM (inactive)	43.5 µM (inactive)		> 100 µM (inactive)	> 100 µM (inactive)	> 100 µM (inactive)	70.8 µM (inactive)	79.4 µM (inactive)	72.9 µM (inactive)	> 100 µM (inactive)		> 100 µM (inactive)	> 100 µM (inactive)	> 100 µM (inactive)	26.1 µM (inactive)
C/C(=C/C(=O)N(C)c1ccccc1Cl)O[Si](C(C)C)(C(C)C)C(C)C	32.8 µM (inactive)	18.2	21.3 µM (inactive)	29.4 µM (inactive)	20 µM (inactive)		15.4 µM (inactive)	34.2 µM (inactive)	24.7 µM (inactive)	40.4 µM (inactive)	17.6 µM (inactive)		19.9 µM (inactive)		61.2 µM (inactive)	21.8 µM (inactive)	40.7 µM (inactive)	19.4 µM (inactive)	15.8 µM (inactive)	
COC(=O)C1(NC(=O)C(CC(=O)OCc2ccccc2)NC(=O)OCc2ccccc2)CCCCCCC1 (stereo not drawn)	8.69 µM (inactive)	30.3	49.7 µM (inactive)	28.6 µM (inactive)	47.2 µM (inactive)	10.2 µM (inactive)	13 µM (inactive)	40 µM (inactive)	46.6 µM (inactive)	4.69 µM (inactive)	24.6 µM (inactive)	5.35 µM (inactive)	35.6 µM (inactive)		29.8 µM (inactive)	31.6 µM (inactive)	31.1 µM (inactive)	31.3 µM (inactive)	40.3 µM (inactive)	
CC1=C(Oc2ccccc2)C(CCC(=O)O)c2c(O)cc(Cl)c(O)c21 (stereo not drawn)	> 100 µM (inactive)	> 100	> 100 µM (inactive)		> 100 µM (inactive)	> 100 µM (inactive)	> 100 µM (inactive)		> 100 µM (inactive)	> 100 µM (inactive)		> 100 µM (inactive)	> 100 µM (inactive)	> 100 µM (inactive)	> 100 µM (inactive)	> 100 µM (inactive)	> 100 µM (inactive)	> 100 µM (inactive)		> 100 µM (inactive)
CN(C)Cc1cc(/C=C/C(=O)c2ccc(Cl)c(Cl)c2)cc(CN(C)C)c1O	12.5 µM (inactive)		6.92 µM (inactive)	9.12 µM (inactive)		25.2 µM (inactive)		21.8 µM (inactive)		10.1 µM (inactive)	10.8 µM (inactive)		6.46 µM (inactive)	5.02 µM (inactive)		20.2 µM (inactive)	9.02 µM (inactive)	12.9 µM (inactive)		6.35 µM (inactive)
